The text below walks through data of PubChem BioAssay (NCI).

Test systems include COLO 205 colon; RXF 393 renal; MALME-3M melanoma; SK-MEL-28 melanoma; HL-60(TB) leukemia; A498 renal; TK-10 renal; DU-145 prostate; ACHN renal; HCT-116 colon.
Assay in all cases: NCI tumour cell line growth inhibition, 48 h

“And” between values parts separate entries of the source, which are not always exact repeats. Equal values may be shown once.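 Each compound was tested at five concentrations against cells in 96-well plates for 48 hours. GI50: concentration for 50% inhibition of growth. TGI is the concentration that stops growth completely.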

As to `BrCc1cccc(C[P+](c2ccccc2)(c2ccccc2)c2ccccc2)c1`, the GI50 is 4.57 µM with COLO 205 colon; 54.7 µM in the assay with RXF 393 renal; 82.8 µM in the assay on MALME-3M melanoma; 21.7 µM with SK-MEL-28 melanoma; 13.9 µM in the assay on HL-60(TB) leukemia; 59.5 µM with A498 renal. The GI50 is 12.5 µM with TK-10 renal, 52.9 µM in the assay on DU-145 prostate, over 100 µM in the assay on ACHN renal and 6.02 µM in the assay with HCT-116 colon. The TGI was 18.9 µM with COLO 205 colon; over 100 µM with RXF 393 renal; over 100 µM with MALME-3M melanoma; over 100 µM in the assay with SK-MEL-28 melanoma; 49.9 µM in the assay with HL-60(TB) leukemia; over 100 µM with A498 renal. Further, the TGI in the assay with TK-10 renal, in the assay with DU-145 prostate, in the assay with ACHN renal and in the assay on HCT-116 colon was over 100 µM each time.

`CSc1nc(NC2OC(COC(C)=O)C(OC(C)=O)C(OC(C)=O)C2OC(C)=O)c(N=CC=Nc2c(NC3OC(COC(C)=O)C(OC(C)=O)C(OC(C)=O)C3OC(C)=O)nc(SC)n(C)c2=O)c(=O)n1C` (centres undefined): the GI50 in the assay with COLO 205 colon is over 50 µM; in the assay with RXF 393 renal it was 12.4 µM; in the assay on MALME-3M melanoma, over 50 µM; in the assay with SK-MEL-28 melanoma it was over 50 µM; in the assay with HL-60(TB) leukemia it was over 50 µM; in the assay with A498 renal, over 50 µM. Besides, the GI50 was 30.7 µM in the assay on TK-10 renal, over 50 µM in the assay with DU-145 prostate, 27.8 µM with ACHN renal and over 50 µM with HCT-116 colon. Further, the TGI is over 100 µM with COLO 205 colon; 46.2 µM and 61.5 µM in the assay on RXF 393 renal; over 100 µM in the assay on MALME-3M melanoma; over 100 µM in the assay on SK-MEL-28 melanoma; over 100 µM with HL-60(TB) leukemia; > 50 µM and 82.8 µM with A498 renal. For the same compound, the TGI was 50 µM and > 97.1 µM with TK-10 renal; over 100 µM in the assay on DU-145 prostate; 50 µM and > 100 µM in the assay on ACHN renal; over 100 µM in the assay on HCT-116 colon.

Consider `CCOC(=O)c1c(-c2ccc(OC)cc2)c(C#N)c2c(C#N)c(N)nn2c1N`, for which the GI50 in the assay with COLO 205 colon was 2.8 µM; in the assay on RXF 393 renal, 2.25 µM; in the assay with MALME-3M melanoma, 4.05 µM; in the assay with SK-MEL-28 melanoma, 5.41 µM; in the assay on HL-60(TB) leukemia, 3.33 µM; in the assay with A498 renal it was 1.73 µM. Further, the GI50 in the assay on TK-10 renal was 16.4 µM; with DU-145 prostate, 4.93 µM; in the assay on ACHN renal it was 4.02 µM; in the assay with HCT-116 colon, 4.35 µM. Also, the TGI is 9.98 µM with COLO 205 colon; 11.5 µM with RXF 393 renal; 82.7 µM in the assay with MALME-3M melanoma; over 100 µM in the assay with SK-MEL-28 melanoma; over 100 µM in the assay with HL-60(TB) leukemia; 7.88 µM in the assay with A498 renal. For the same compound, the TGI was 69.2 µM in the assay on TK-10 renal, over 100 µM in the assay with DU-145 prostate, 48.5 µM in the assay on ACHN renal and 19.4 µM in the assay with HCT-116 colon.

For the compound `CN(C)C(=S)Sc1ccc([N+](=O)[O-])cc1[N+](=O)[O-]`, the GI50 in the assay on COLO 205 colon is 0.8 µM; with RXF 393 renal it was 3.83 µM; in the assay with MALME-3M melanoma it was 1.38 µM; in the assay on SK-MEL-28 melanoma, 6.75 µM; with HL-60(TB) leukemia, 2.68 µM; in the assay on A498 renal, 9.47 µM. The GI50 is 2.29 µM in the assay with TK-10 renal, 2.59 µM in the assay with DU-145 prostate, 1.67 µM in the assay on ACHN renal and 1.54 µM in the assay with HCT-116 colon. Moreover, the TGI in the assay on COLO 205 colon was determined as 3.02 µM; with RXF 393 renal, 8.3 µM; in the assay on MALME-3M melanoma, 3.17 µM; in the assay with SK-MEL-28 melanoma, 18.4 µM; in the assay with HL-60(TB) leukemia, 8.54 µM; with A498 renal, 22 µM. Moreover, the TGI with TK-10 renal worked out at 5.85 µM; in the assay with DU-145 prostate, 6.89 µM; with ACHN renal it was 3.05 µM; with HCT-116 colon, 3.7 µM.

In the case of `CCc1ccc(/C=C/c2ccc(O)c3ncccc23)[n+](C)c1`, the GI50 in the assay on COLO 205 colon is 8.07 µM; in the assay with RXF 393 renal, over 100 µM; in the assay on MALME-3M melanoma it was 13.7 µM; in the assay on SK-MEL-28 melanoma, 76.2 µM; in the assay with HL-60(TB) leukemia, 18.8 µM; with A498 renal, 1.42 µM. Besides, the GI50 is over 100 µM in the assay on TK-10 renal, 4.96 µM in the assay on DU-145 prostate, over 61.1 µM with ACHN renal and 4.02 µM with HCT-116 colon. The TGI in the assay with COLO 205 colon is over 89.8 µM; in the assay with RXF 393 renal, over 100 µM; in the assay on MALME-3M melanoma, over 100 µM; in the assay with SK-MEL-28 melanoma, over 100 µM; in the assay on HL-60(TB) leukemia, 73.2 µM; in the assay with A498 renal, over 63 µM. The TGI in the assay with TK-10 renal, in the assay on DU-145 prostate, in the assay with ACHN renal and in the assay on HCT-116 colon was over 100 µM each time.

With `Nc1c(C(=O)c2ccccc2)cnn1-c1ccc(F)cc1`, the GI50 with COLO 205 colon, in the assay with RXF 393 renal, in the assay on MALME-3M melanoma, with SK-MEL-28 melanoma, in the assay with HL-60(TB) leukemia and with A498 renal was over 25 µM throughout. Moreover, the GI50 with TK-10 renal, in the assay with DU-145 prostate, with ACHN renal and in the assay with HCT-116 colon was over 25 µM throughout. In addition, the TGI in the assay on COLO 205 colon, in the assay on RXF 393 renal, with MALME-3M melanoma, with SK-MEL-28 melanoma, in the assay with HL-60(TB) leukemia and in the assay with A498 renal was over 25 µM in each case. For the same compound, the TGI with TK-10 renal, in the assay with DU-145 prostate, with ACHN renal and in the assay on HCT-116 colon was over 25 µM in each case.

Regarding `O=C(NNc1ccccc1)C(=O)NNc1ccccc1`, the GI50 is 2.73 µM in the assay on COLO 205 colon; over 100 µM in the assay with RXF 393 renal; over 100 µM with MALME-3M melanoma; 58.1 µM in the assay on SK-MEL-28 melanoma; 0.627 µM in the assay on HL-60(TB) leukemia; over 100 µM in the assay on A498 renal. Besides, the GI50 in the assay on TK-10 renal is 0.919 µM; in the assay with DU-145 prostate, 20.8 µM; in the assay on ACHN renal, 2.03 µM; in the assay on HCT-116 colon, 6.42 µM. The TGI in the assay on COLO 205 colon was 48.5 µM; with RXF 393 renal, over 100 µM; in the assay on MALME-3M melanoma, over 100 µM; with SK-MEL-28 melanoma, over 100 µM; in the assay with HL-60(TB) leukemia, 5.28 µM; with A498 renal, over 100 µM. Besides, the TGI in the assay on TK-10 renal, in the assay on DU-145 prostate, in the assay with ACHN renal and with HCT-116 colon was over 100 µM in each case.

Regarding `Cc1ccc(Nc2oc(-c3ccccc3)nc2[P+](c2ccccc2)(c2ccccc2)c2ccccc2)cc1`, the GI50 was 1.33 µM with COLO 205 colon; 0.864 µM in the assay with RXF 393 renal; 0.459 µM in the assay on MALME-3M melanoma; 1.19 µM with SK-MEL-28 melanoma; 0.425 µM in the assay on HL-60(TB) leukemia; 0.697 µM with A498 renal. Further, the GI50 in the assay on TK-10 renal is 1.37 µM; with DU-145 prostate, 1.34 µM; with ACHN renal it was 0.988 µM; with HCT-116 colon, 0.377 µM. Also, the TGI in the assay on COLO 205 colon was found to be 3.1 µM; in the assay with RXF 393 renal, 2.34 µM; in the assay on MALME-3M melanoma, 1.43 µM; with SK-MEL-28 melanoma it was 2.55 µM; in the assay on HL-60(TB) leukemia, 1.39 µM; with A498 renal it was 2.36 µM. For the same compound, the TGI was determined as 2.93 µM in the assay on TK-10 renal, 4.16 µM in the assay with DU-145 prostate, 2.76 µM with ACHN renal and 1.39 µM in the assay with HCT-116 colon.

Consider `C#Cc1nc(Nc2cc(C)[nH]n2)c2ccccc2n1`, for which the GI50 in the assay on COLO 205 colon was 0.279 µM; with RXF 393 renal, 0.136 µM; in the assay on MALME-3M melanoma, 0.295 µM; in the assay with SK-MEL-28 melanoma, 0.363 µM; in the assay with HL-60(TB) leukemia, 0.265 µM; in the assay with A498 renal, 0.139 µM. In addition, the GI50 is 0.427 µM in the assay with TK-10 renal, 0.396 µM with DU-145 prostate, 0.257 µM with ACHN renal and 0.248 µM in the assay with HCT-116 colon. Also, the TGI was 0.674 µM in the assay with COLO 205 colon; 0.301 µM in the assay on RXF 393 renal; 0.915 µM in the assay with MALME-3M melanoma; 1.71 µM in the assay with SK-MEL-28 melanoma; 0.887 µM in the assay on HL-60(TB) leukemia; 0.3 µM with A498 renal. The TGI in the assay on TK-10 renal came out at 2.91 µM; with DU-145 prostate, 1.7 µM; in the assay with ACHN renal, 1.71 µM; in the assay on HCT-116 colon, 0.951 µM.

On to `CN(C)C/C=C/C(=O)Nc1cc2c(Nc3ccc(F)c(Cl)c3)ncnc2cc1O[C@H]1CCOC1`, for which the GI50 in the assay on COLO 205 colon is 0.998 µM and 0.887 µM; in the assay with RXF 393 renal, 1.17 µM and 0.514 µM; in the assay on MALME-3M melanoma, 2.1 µM and 1.22 µM; in the assay with SK-MEL-28 melanoma, 2.29 µM and 2.45 µM; in the assay with HL-60(TB) leukemia it was 1.45 µM and 0.599 µM; in the assay on A498 renal it was 0.155 µM and 0.106 µM. For the same compound, the GI50 with TK-10 renal was < 0.01 µM and 0.00136 µM; in the assay on DU-145 prostate, 0.884 µM and 0.244 µM; with ACHN renal it was < 0.01 µM and 0.00252 µM; with HCT-116 colon, 0.448 µM and 0.679 µM. The TGI was 3.09 µM and > 5.59 µM in the assay on COLO 205 colon; 6.79 µM and 4.13 µM in the assay with RXF 393 renal; 4.16 µM and 3.95 µM in the assay on MALME-3M melanoma; 6.8 µM and > 10 µM in the assay with SK-MEL-28 melanoma; 5.03 µM and 3.75 µM with HL-60(TB) leukemia; 2.55 µM and 2.3 µM in the assay with A498 renal. In addition, the TGI in the assay on DU-145 prostate is 12.7 µM and > 10 µM; in the assay with ACHN renal it was 13.1 µM and > 10 µM; in the assay with HCT-116 colon, 1.93 µM and > 5.87 µM.

Regarding `COC(=O)C1=CN(CC2=CC(=O)C(C)=CC2=O)C=C(C(=O)OC)C1c1cccc(OC)c1`, the GI50 with COLO 205 colon is 18.4 µM; with RXF 393 renal, 17.4 µM; in the assay with MALME-3M melanoma it was 6.81 µM; with SK-MEL-28 melanoma, 25 µM; with HL-60(TB) leukemia, 4.76 µM; with A498 renal, 18.6 µM. The GI50 is 12.2 µM in the assay on TK-10 renal, 16.4 µM in the assay on DU-145 prostate, 2.78 µM in the assay on ACHN renal and 3.63 µM in the assay on HCT-116 colon. Also, the TGI was over 66.6 µM in the assay with COLO 205 colon; 39.8 µM in the assay on RXF 393 renal; 16.1 µM in the assay on MALME-3M melanoma; 79 µM in the assay with SK-MEL-28 melanoma; over 100 µM in the assay on HL-60(TB) leukemia; 34.6 µM in the assay on A498 renal. Also, the TGI in the assay on TK-10 renal is 25.9 µM; in the assay with DU-145 prostate, 33.3 µM; in the assay with ACHN renal it was 7.99 µM; in the assay on HCT-116 colon, 11.1 µM.
